The values below come from US11801238B2, “Anti-viral activity of VPS34 inhibitors” (priority 2020, dated 2023).

In series [1] the test system is SARS CoV-2. Description: SARS CoV-2 CPE assay for antiviral activity in Vero E6 host cells. It counts as cell-based. As to conditions: read-out: IC50 for inhibition of SARS CoV-2 mediated cell killing.
Series [2] can be described thus: Compound cytotoxicity (CC50) counter screen, Cell Titer-Glo. As to conditions: African green monkey, Example 5, Vero E6 cells, read-out: CC50 (general cytotoxic effects). It counts as cell-based. As to the method:
Compound cytotoxicity (CC50) is assessed in a BSL-2 counter screen as follows: Host cells in media are added in 25 μl aliquots (4000 cells/well) to each well of assay ready plates prepared with test compounds as above. Cells only (100% viability) and cells treated with hyamine at 100 μM final concentration (0% viability) serve as the high and low signal controls, respectively, for cytotoxic effect in the assay. DMSO is maintained at a constant concentration for all wells (0.3%) as dictated by the dilution factor of stock test compound concentrations. After incubating plates at 37° C./5% CO2 and 90% humidity for 72 hours, 30 μl Cell Titer-Glo (Promega) is added to each well. Luminescence is read using a BMG PHERAstar plate reader following incubation at room temperature for 10 minutes to measure cell viability.
(The purpose of a counterscreen is to sort out artefacts and off-target activity.)

The test system of series [3] is SARS CoV-2. Description: microbe, parasite or virus in culture. It counts as cell-based. The note with it: Severe acute respiratory syndrome coronavirus 2, A549, 48 h; read-out: IC50 for inhibition of SARS CoV-2 mediated cell killing.
The next series is described as follows: in vitro. The note with it: human.
The mark [4] stands for this setting: Vero C1008, CPE assay, Vero E6 cells, USA_WA1/2020 SARS CoV-2, 72 hours, 10-point dose response (high concentration 15 μM).

The structures appear in SMILES notation.

What is called IC50 is the concentration needed to halve the response being measured. Regarding `COC(=O)Nc1cc(-c2cc(N3CCOCC3C(F)(F)F)[nH]c(=O)c2)ccn1` (stereo not shown) [Compound 4], the IC50 in the series on SARS CoV-2 [1] (Vero C1008, 72 h) came out at 209 nM; in the series with SARS CoV-2 [3], 67 nM. Moreover, in series [2], the CC50 at 72 h was found to be 8260 nM. This compound also registered a CC50 in “in vitro” of 2400 nM.

As to `COC(=O)Nc1cc(-c2cc(-c3cccnc3C(F)(F)F)[nH]c(=O)c2)ccn1` [Compound 3], the IC50 in the series on SARS CoV-2 [1] (setting [4]) worked out at 340 nM; in the series on SARS CoV-2 [3], 190 nM. For the same compound, in series [2], the CC50 at 72 h was over 30000 nM. The compound further came in with a CC50 in “in vitro” of over 30000 nM.

For `COC(=O)Nc1cc(-c2cc(-c3ccccc3C(F)(F)F)[nH]c(=O)c2)ccn1` [Compound 1], the IC50 with SARS CoV-2 [1] (setting [4]) was determined as 120 nM; with SARS CoV-2 [3], 90 nM. For the same compound, in series [2], the CC50 at 72 h was over 30000 nM. Further, the CC50 in the series “in vitro” came to 17000 nM.

For the compound `CC(=O)Nc1cc(-c2cc(-c3cccnc3C(F)(F)F)[nH]c(=O)c2)ccn1` [Compound 2], the figures for the IC50 in the series on SARS CoV-2 [1] (setting [4]) and with SARS CoV-2 [3] were 2340 nM and 470 nM, respectively. In series [2], the CC50 at 72 h is over 30000 nM. In the series “in vitro”, this compound registered a CC50 of over 30000 nM.
